Measurements as given in patent US20030004172A1, “Fused pyrimidinone matrix metalloproteinase inhibitors” (priority 2001, published 2003).

What follows are compounds tested against MMP-13CD (catalytic domain of collagenase-3) (Homo sapiens, UniProt P45452) (assay: Thiopeptolide substrate hydrolysis inhibition assay, MMP-13CD). Conditions: Table I; thiopeptolide substrate, HEPES pH 7.0, 22° C.; read-out: MMP-13CD IC50.
Format: biochemical
From the text: Thiopeptolide substrates show virtually no decomposition or hydrolysis at or below neutral pH in the absence of a matrix metalloproteinase enzyme.

SMILES | IC50 [µM]
COc1ccc(CNC(=O)c2cc3c(=O)n(Cc4ccc(C(=O)O)cc4)c(=O)n(C)c3s2)cc1 [Example 52, 4-[6-(4-Methoxy-benzylcarbamoyl)-1-methyl-2,4-dioxo-1,4-dihydro-2H-thieno[2,3-d]pyrimidin-3-ylmethyl]-benzoic acid] | 0.00395
COc1ccc(CNC(=O)c2cc3c(=O)n(Cc4ccc(C(=O)OC(C)(C)C)cc4)c(=O)n(C)c3s2)cc1OC [Example 53, 4-[6-(3,4-Dimethoxy-benzylcarbamoyl)-1-methyl-2,4-dioxo-1,4-dihydro-2H-thieno[2,3-d]pyrimidin-3-ylmethyl]-benzoic acid tert-butyl ester] | 30
COc1ccc(CNC(=O)c2cc3c(=O)n(Cc4ccc(C(=O)O)cc4)c(=O)n(C)c3s2)cc1OC [Example 54, 4-[6-(3,4-Dimethoxy-benzylcarbamoyl)-1-methyl-2,4-dioxo-1,4-dihydro-2H-thieno[2,3-d]pyrimidin-3-ylmethyl]-benzoic acid] | 4.5
Cn1c(=O)n(Cc2ccc(C(=O)O)cc2)c(=O)c2cc(C(=O)NCc3ccc(Br)cc3)sc21 [Example 55, 4-[6-(4-Bromo-benzylcarbamoyl)-1-methyl-2,4-dioxo-1,4-dihydro-2H-thieno[2,3-d]pyrimidin-3-ylmethyl]-benzoic acid] | 0.011
Cn1c(=O)n(Cc2ccc(C(=O)OC(C)(C)C)cc2)c(=O)c2cc(C(=O)NCc3ccc(Br)cc3)sc21 [Example 56, 4-[6-(4-Bromo-benzylcarbamoyl)-1-methyl-2,4-dioxo-1,4-dihydro-2H-thieno[2,3-d]pyrimidin-3-ylmethyl]-benzoic acid tert-butyl ester] | 30
Cn1c(=O)n(Cc2ccc(C(=O)O)cc2)c(=O)c2cc(C(=O)NCc3cc(C(F)(F)F)cc(C(F)(F)F)c3)sc21 [Example 57, 4-[6-(3,5-Bis-trifluoromethyl-benzylcarbamoyl)-1-methyl-2,4-dioxo-1,4-dihydro-2H-thieno[2,3-d]pyrimidin-3-ylmethyl]-benzoic acid] | 5.6
Cn1c(=O)n(Cc2ccc(C(=O)O)cc2)c(=O)c2cc(C(=O)NCc3ccc(Cl)cc3)sc21 [Example 58, 4-[6-(4-Chloro-benzylcarbamoyl)-1-methyl-2,4-dioxo-1,4-dihydro-2H-thieno[2,3-d]pyrimidin-3-ylmethyl]-benzoic acid] | 0.0115
Cn1c(=O)n(Cc2ccc(C(=O)O)cc2)c(=O)c2cc(C(=O)NCc3ccc(S(N)(=O)=O)cc3)sc21 [Example 59, 4-[1-Methyl-2,4-dioxo-6-(4-sulfamoyl-benzylcarbamoyl)-1,4-dihydro-2H-thieno[2,3-d]pyrimidin-3-ylmethyl]-benzoic acid] | 2
COc1ccc(CNC(=O)c2cc3c(=O)n(Cc4ccc(F)cc4)c(=O)n(C)c3s2)cc1 [Example 60, 3-(4-Fluoro-benzyl)-1-methyl-2,4-dioxo-1,2,3,4-tetrahydro-thieno[2,3-d]pyrimidine-6-carboxylic acid 4-methoxy-benzylamide] | 0.16
COc1cccc(CNC(=O)c2cc3c(=O)n(Cc4ccc(I)cc4)c(=O)n(C)c3s2)c1 [Example 61, 3-(4-Iodo-benzyl)-1-methyl-2,4-dioxo-1,2,3,4-tetrahydro-thieno[2,3-d]pyrimidine-6-carboxylic acid 3-methoxy-benzylamide] | 0.045
COc1ccc(CNC(=O)c2cc3c(=O)n(Cc4ccc(S(=O)(=O)N(C)C)cc4)c(=O)n(C)c3s2)cc1 [Example 62, 3-(4-Dimethylsulfamoyl-benzyl)-1-methyl-2,4-dioxo-1,2,3,4-tetrahydro-thieno[2,3-d]pyrimidine-6-carboxylic acid 4-methoxy-benzylamide] | 0.0535
COc1ccc(CNC(=O)c2cc3c(=O)n(Cc4ccc(C#N)cc4)c(=O)n(C)c3s2)cc1 [Example 64, 3-(4-Cyano-benzyl)-1-methyl-2,4-dioxo-1,2,3,4-tetrahydro-thieno[2,3-d]pyrimidine-6-carboxylic acid 4-methoxy-benzylamide] | 0.062
COc1cccc(CNC(=O)c2cc3c(=O)n(Cc4ccc(NC(C)=O)cc4)c(=O)n(C)c3s2)c1 [Example 65, 3-(4-Acetylamino-benzyl)-1-methyl-2,4-dioxo-1,2,3,4-tetrahydro-thieno[2,3-d]pyrimidine-6-carboxylic acid 3-methoxy-benzylamide] | 0.0535
CCOC(=O)c1ccc(Cn2c(=O)c3cc(C(=O)NCc4cccc(OC)c4)sc3n(C)c2=O)o1 [Example 65a, 5-[6-(3-Methoxy-benzylcarbamoyl)-1-methyl-2,4-dioxo-1,4-dihydro-2H-thieno[2,3-d]pyrimidin-3-ylmethyl]-furan-2-carboxylic acid ethyl ester] | 1.05
COc1cccc(COC(=O)c2cc3c(=O)n(Cc4ccc(C#N)cc4)c(=O)[nH]c3s2)c1 [Example 66, 3-(4-Cyano-benzyl)-2,4-dioxo-1,2,3,4-tetrahydro-thieno[2,3-d]pyrimidine-6-carboxylic acid 3-methoxy-benzyl ester] | 0.0275
COc1cccc(COC(=O)c2cc3c(=O)n(Cc4ccc(-c5nn[nH]n5)cc4)c(=O)[nH]c3s2)c1 [Example 67, 2,4-Dioxo-3-[4-(2H-tetrazol-4-yl)-benzyl]-1,2,3,4-tetrahydro-thieno[2,3-d]pyrimidine-6-carboxylic acid 3-methoxy-benzyl ester] | 0.00168
COc1cccc(CNC(=O)c2cc3c(=O)n(Cc4ccc(C(=O)OCCN(C)C)cc4)c(=O)n(C)c3s2)c1 [Example 68, 4-[6-(3-Methoxy-benzylcarbamoyl)-1-methyl-2,4-dioxo-1,4-dihydro-2H-thieno[2,3-d]pyrimidin-3-ylmethyl]-benzoic acid 2-dimethylamino-ethyl ester] | 0.0635
COc1cccc(CNC(=O)c2cc3c(=O)n(CC4CCCCC4)c(=O)n(C)c3s2)c1 [Example 69, 3-Cylcohexylmethyl-1-methyl-2,4-dioxo-1,2,3,4-tetrahydro-thieno[2,3-d]pyrimidine-6-carboxylic acid-3methoxy-benzylamide] | 0.057
COc1ccc(CNC(=O)c2cc3c(=O)n(CC4CCCCC4)c(=O)n(C)c3s2)cc1 [Example 70, 3-cylcohexylmethyl-1-methyl-2,4-dioxo-1,2,3,4-tetrahydro-thieno[2,3-d]pyrimidine-6-carboxylic acid-4methoxy-benzylamide] | 0.119
O=C(OCc1ccoc1)c1cc2c(=O)n(Cc3ccccc3)c(=O)[nH]c2s1 [Example 71, 3-Benzyl-2,4-dioxo-1,2,3,4-tetrahydro-thieno[2,3-d]pyrimidine-6-carboxylic acid furan-3-ylmethyl ester] | 13
Cn1c(=O)n(Cc2ccccc2)c(=O)c2cc(C(=O)OCc3c(F)c(F)c(F)c(F)c3F)sc21 [Example 72, 3-Benzyl-1-methyl-2,4-dioxo-1,2,3,4-tetrahydro-thieno[2,3-d]pyrimidine-6-carboxylic acid pentafluorophenylmethyl ester] | > 100
O=C(OCc1ccccc1)c1cc2c(=O)n(Cc3ccccc3)c(=O)n(CC3CC3)c2s1 [Example 74, 3-Benzyl-1-cyclopropylmethyl-2,4-dioxo-1,2,3,4-tetrahydro-thieno[2,3-d]pyrimidine-6-carboxylic acid benzyl ester] | 71.5
Cn1c(=O)n(Cc2ccccc2)c(=O)c2cc(C(=O)NCc3ccncc3)sc21 [Example 75, 3-Benzyl-1-methyl-2,4-dioxo-1,2,3,4-tetrahydro-thieno[2,3-d]pyrimidine-6-carboxylic acid (pyridin-4-ylmethyl)-amide] | 0.345
